Results taken from US20160159774A1 (Celgene Avilomics Research, Inc., priority 2014, published 2016).
pEC50, pIC50: −log10 of the molar value.

Tests used:
[1] = molecular target: T1, BTK in Ramos human Burkitt lymphoma cells (Homo sapiens, UniProt Q06187); experiment: BTK Ramos cellular assay (BTK occupancy); type: cell-based; conditions: concentration producing 50% occupancy of BTK, 1 hour incubation with compound
T1 construct: Compounds of this invention were assayed in Ramos human Burkitt lymphoma cells; endogenous in cells; host or cells: Ramos human Burkitt lymphoma cells
Procedure: BTK activity in Ramos cells, in the presence of a compound of the invention, can be measured by 3 different methods: 1) inhibition of autophosphorylation of BTK; 2) inhibition of phosphorylation of the immediate BTK surrogate PLCγ2; and 3) BTK occupancy. […] In this instance, BTK occupancy was chosen and is described below.
Compounds of this invention were assayed in Ramos human Burkitt lymphoma cells. Ramos cells were grown in suspension in T175 flasks, spun down, resuspended to a concentration of 2×10^6 cells per mL in serum-free media and incubated for 1 hour. Compound was added to Ramos cells to a final concentration of 500, 166.7, 55.6, 18.5, 6.2, 2.1, and 0.7 nM. Ramos cells were incubated with compound for 1 hour, washed with PBS and lysed in 1004 of BioRad lysis Buffer. Cell lysates were incubated with a biotinylated covalent probe (compound 1-215 disclosed in U.S. published application number 2010/0029610, incorporated by reference in its entirety) at a final concentration of 1 μM in a PBS, 0.05% Tween-20, 1% BSA solution for 1 h at room temperature. Standards and samples were transferred to a streptavidin-coated 96-well ELISA plate and mixed while shaking for 1 h at room temperature. The α-Btk antibody (BD 611116, 1:1000 dilution in PBS+0.05% Tween-20+0.5% BSA) was then added and incubated for 1 h at room temperature. After wash, goat α-mouse-HRP (1:5000 dilution in PBS+0.05% Tween-20+0.5% BSA) was added and incubated for 1 h at room temperature. The ELISA was developed with addition of tetramethyl benzidine (TMB) followed by Stop Solution and read at OD 450 nm. The standard curve (11.7-3000 pg/μL) was generated with human full-length recombinant Btk protein and plotted using a 4 parameter curve fit in Gen5 software. Uninhibited Btk detected from samples was normalized to μg total protein as determined by BCA protein analysis (Pierce Cat. 23225).
The results of this assay show the concentration of compound producing 50% occupancy of BTK. This level of occupancy empirically translates to a level of 50% inhibition of BTK activity (both as measured by autophosphorylation and by phosphorylation of PLCγ2). […] The compound numbers correspond to the compound numbers in the examples.

activated BTK enzyme = molecular target: T2, activated BTK enzyme (Homo sapiens, UniProt Q06187); experiment: Omnia assay for potency assessment against BTK; type: biochemical; conditions: BTK inhibition assay; [BTK]=5 nM, [ATP]=40 μM, [Y5-Sox]=10 μM
T2 construct: purchased Life Technologies PV3363
Text: Omnia Assay Protocol for Potency Assessment Against BTK
The protocol below describes an assay to measure potency of compounds against the activated BTK enzyme. The mechanics of the assay platform are best described by the vendor (Life Technologies, Carlsbad, Calif.) on their website at the following URLs: www.lifetechnologies.com/us/en/home/life-science/drug-discovery/target-and-lead-identification-and-validation/kinasebiology/kinase-activity-assays/omnia-kinase-assays/omnia-kinase-principle.html and tools.lifetechnologies.com/content/sfs/manuals/omnia_kinase_assay_man.pdf
Briefly, 10× stocks of BTK (PV3363) from Life Technologies, 1.13×ATP (AS00lA) and Sox conjugated peptide substrates, Y5-Sox, (KZN305l) were prepared in 1× kinase reaction buffer consisting of 20 mM Tris, pH 7.5, 5 mM MgCl2, 1 mM EGTA, 5 mM (3-glycerophosphate, 5% glycerol (10× stock, KB002A) and 0.2 mM DTT (DS00lA). 5 μL of each enzyme were pre-incubated in a Corning (#3574) 384-well, white, non-binding surface microtiter plate (Corning, N.Y.) for 30 min. at room temperature with a 0.5 μL volume of 50% DMSO or serially diluted compounds prepared in 50% DMSO. Kinase reactions were started with the addition of […] of the ATP/Tyr-Sox peptide substrate Y5 mix and monitored every 71 seconds for 60 minutes at λex360/λem485 in a Synergy4 plate reader from BioTek (Winooski, Vt.). At the conclusion of each assay, progress curves from each well were examined for linear reaction kinetics and fit statistics (R2, 95% confidence interval, absolute sum of squares). Initial velocity (0 minutes to ˜30 minutes) from each reaction was determined from the slope of a plot of relative fluorescence units vs time (minutes) and then plotted against inhibitor concentration to estimate IC50 from log [Inhibitor] vs Response, Variable Slope model in GraphPad Prism from GraphPad Software (San Diego, Calif.).
Reagent conditions for the assay are:
[BTK]=5 nM, [ATP]=40 μM, [Y5-Sox]=10 μM (ATP KMapp˜36 μM).
The compound numbers correspond to the compound numbers in the examples.

T2 sequence (Q06187 whole entry): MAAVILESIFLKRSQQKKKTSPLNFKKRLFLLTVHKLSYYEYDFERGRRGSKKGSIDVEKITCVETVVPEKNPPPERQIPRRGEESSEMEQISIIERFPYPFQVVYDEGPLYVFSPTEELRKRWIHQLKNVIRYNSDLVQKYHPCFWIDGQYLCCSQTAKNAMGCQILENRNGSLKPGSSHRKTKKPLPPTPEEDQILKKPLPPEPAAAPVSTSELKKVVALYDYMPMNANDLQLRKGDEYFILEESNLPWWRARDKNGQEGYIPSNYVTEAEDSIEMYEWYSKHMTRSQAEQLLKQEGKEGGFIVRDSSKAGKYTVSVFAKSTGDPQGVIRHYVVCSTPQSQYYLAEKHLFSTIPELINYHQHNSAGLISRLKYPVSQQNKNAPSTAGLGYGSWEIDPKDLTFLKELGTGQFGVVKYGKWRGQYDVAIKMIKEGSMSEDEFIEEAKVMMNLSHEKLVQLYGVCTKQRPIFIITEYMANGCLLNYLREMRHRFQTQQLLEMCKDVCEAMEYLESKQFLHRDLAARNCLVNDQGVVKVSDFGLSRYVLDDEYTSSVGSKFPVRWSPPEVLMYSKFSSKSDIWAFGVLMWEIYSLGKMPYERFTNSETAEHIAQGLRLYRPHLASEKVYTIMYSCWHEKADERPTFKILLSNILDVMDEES
T1 sequence (Q06187 whole entry): as above

Structure (SMILES)	pEC50 [1]	melting point [°C]	pIC50 (activated BTK enzyme)
C=CC(=O)N1CCC[C@@H](Nc2nc(Nc3ccc4c(c3)CN(C3CC3)C4)ncc2F)C1 [Compound I-21, (R)-1-(3-((2-((2-cyclopropylisoindolin-5-yl)amino)-5-fluoropyrimidin-4-yl)amino)piperidin-1-yl)prop-2-en-1-one]	7.00 to 8.00	–	> 8.00
C=CC(=O)N1CCC[C@@H](Nc2nc(Nc3ccc4c(c3)CCN(C)C4)ncc2F)C1 [Compound I-28, (R)-1-(3-((5-Fluoro-2-((2-methyl-1,2,3,4-tetrahydroisoquinolin-6-yl)amino)-pyrimidin-4-yl)amino)piperidin-1-yl)prop-2-en-1-one]	7.00 to 8.00	–	> 8.00
C=CC(=O)N1CCC[C@@H](Nc2nc(Nc3ccc4c(c3)CN(CCOC)C4)ncc2F)C1 [Compound I-4, (R)-1-(3-((5-Fluoro-2-((2-(2-methoxyethyl)isoindolin-5-yl)amino)pyrimidin-4-yl)amino)piperidin-1-yl)prop-2-en-1-one]	7.00 to 8.00	–	> 8.00
C=CC(=O)N1CCC[C@@H](Nc2nc(Nc3ccc4c(c3)CN(C3CCN(C(C)=O)CC3)C4)ncc2F)C1 [Compound I-9, (R)-1-(3-(2-(2-(1-Acetylpiperidin-4-yl)isoindolin-5-ylamino)-5-fluoropyrimidin-4-ylamino)piperidin-1-yl)prop-2-en-1-one]	7.00 to 8.00	–	> 8.00
C=CC(=O)N1CCC[C@@H](Nc2nc(Nc3ccc4c(c3)CN(C(C)=O)C4)ncc2F)C1 [Compound I-3, (R)-1-(3-((2-((2-Acetylisoindolin-5-yl)amino)-5-fluoropyrimidin-4-yl)amino)-piperidin-1-yl)prop-2-en-1-one]	6.00 to 7.00	–	> 8.00
C=CC(=O)N1CCC[C@@H](Nc2nc(Nc3ccc4c(c3)CN(C)C4)ncc2F)C1 [Compound I-2, (R)-1-(3-((5-Fluoro-2-((2-methylisoindolin-5-yl)amino)pyrimidin-4-yl)amino)piperidin-1-yl)prop-2-en-1-one]	> 8.00	–	> 8.00
C=CC(=O)N1CCC[C@@H](Nc2nc(Nc3ccc4c(c3)CN(CC3CCN(C)CC3)C4)ncc2F)C1 [Compound I-8]	> 8.00	–	> 8.00
C=CC(=O)N1CCC[C@@H](Nc2nc(Nc3ccc4c(c3)CNC4)ncc2F)C1 [Compound I-1, (R)-1-(3-((5-fluoro-2-(isoindolin-5-ylamino)pyrimidin-4-yl)amino)piperidin-1-yl)prop-2-en-1-one]	7.00 to 8.00	–	> 8.00
C=CC(=O)N1CCC[C@@H](Nc2nc(Nc3ccc4c(c3)CN(CC3CC3)C4)ncc2F)C1 [Compound I-19, (R)-1-(3-((2-((2-(cyclopropylmethyl)isoindolin-5-yl)amino)-5-fluoropyrimidin-4-yl)amino)piperidin-1-yl)prop-2-en-1-one]	> 8.00	–	> 8.00

Other lines, results leading:

pEC50 [1]	melting point [°C]	pIC50 (activated BTK enzyme)	Structure (SMILES)
> 8.00	80 to 82	> 8.00	C=CC(=O)N1CCC[C@@H](Nc2nc(Nc3ccc4c(c3)CN(CC3CC3)CC4)ncc2F)C1 [Compound I-47, (R)-1-(3-(2-(2-(Cyclopropylmethyl)-1,2,3,4-tetrahydroisoquinolin-7-ylamino)-5-fluoropyrimidin-4-ylamino)piperidin-1-yl)prop-2-en-1-one]
7.00 to 8.00	103 to 105	> 8.00	C=CC(=O)N1CCC[C@@H](Nc2nc(Nc3ccc4c(c3)CN(CC3COC3)CCC4)ncc2F)C1 [Compound I-56, (R)-1-(3-(5-Fluoro-2-(2-(oxetan-3-ylmethyl)-2,3,4,5-tetrahydro-1H-benzo[c]azepin-8-ylamino)pyrimidin-4-ylamino)piperidin-1-yl)prop-2-en-1-one]
> 8.00	–	> 8.00	C=CC(=O)N1CCC[C@@H](Nc2nc(Nc3ccc4c(c3)CNCCC4)ncc2F)C1 [Compound I-53, (R)-1-(3-(5-Fluoro-2-(2,3,4,5-tetrahydro-1H-benzo[c]azepin-8-ylamino)pyrimidin-4-ylamino)piperidin-1-yl)prop-2-en-1-one]
> 8.00	–	> 8.00	C=CC(=O)N1CCC[C@@H](Nc2nc(Nc3ccc4c(c3)CN(C)C4)ncc2C(F)(F)F)C1 [Compound I-64, (R)-1-(3-((2-((2-Methylisoindolin-5-yl)amino)-5-(trifluoromethyl)pyrimidin-4-yl)amino)piperidin-1-yl)prop-2-en-1-one]
> 8.00	–	> 8.00	C=CC(=O)N1CCC[C@@H](Nc2nc(Nc3ccc4c(c3)CN(C)CC4)ncc2F)C1 [Compound I-34, (R)-1-(3-((5-Fluoro-2-((2-methyl-1,2,3,4-tetrahydroisoquinolin-7-yl)amino)-pyrimidin-4-yl)amino)piperidin-1-yl)prop-2-en-1-one]
> 8.00	–	> 8.00	C=CC(=O)N1CCC[C@@H](Nc2nc(Nc3ccc4c(c3)CCN(C3CCC3)C4)ncc2F)C1 [Compound I-42, (R)-1-(3-((2-((2-cyclobutyl-1,2,3,4-tetrahydroisoquinolin-6-yl)amino)-5-fluoropyrimidin-4-yl)amino)piperidin-1-yl)prop-2-en-1-one]
7.00 to 8.00	–	> 8.00	C=CC(=O)N1CCC[C@@H](Nc2nc(Nc3ccc4c(c3)CCN(C(C)C)C4)ncc2F)C1 [Compound I-29, (R)-1-(3-((5-Fluoro-2-((2-isopropyl-1,2,3,4-tetrahydroisoquinolin-6-yl)amino)-pyrimidin-4-yl)amino)piperidin-1-yl)prop-2-en-1-one]
7.00 to 8.00	–	> 8.00	C#CCN1Cc2ccc(Nc3ncc(F)c(N[C@@H]4CCCN(C(=O)C=C)C4)n3)cc2C1 [Compound I-67, (R)-1-(3-((5-Fluoro-2-((2-(prop-2-yn-1-yl)isoindolin-5-yl)amino)pyrimidin-4-yl)amino)piperidin-1-yl)prop-2-en-1-one]
7.00 to 8.00	–	> 8.00	C=CC(=O)N1CCC[C@@H](Nc2nc(Nc3ccc4c(c3)CCN(C(C)=O)C4)ncc2F)C1 [Compound I-30, (R)-1-(3-((2-((2-Acetyl-1,2,3,4-tetrahydroisoquinolin-6-yl)amino)-5-fluoro-pyrimidin-4-yl)amino)piperidin-1-yl)prop-2-en-1-one]
> 8.00	–	> 8.00	C=CC(=O)N1CCC[C@@H](Nc2nc(Nc3ccc4c(c3)CN(C3COC3)CC4)ncc2F)C1 [Compound I-35, (R)-1-(3-(5-Fluoro-2-(2-(oxetan-3-yl)-1,2,3,4-tetrahydroisoquinolin-7-ylamino)-pyrimidin-4-ylamino)piperidin-1-yl)prop-2-en-1-one]
7.00 to 8.00	–	> 8.00	C=CC(=O)N1CCC[C@@H](Nc2nc(Nc3ccc4c(c3)C(=O)N(C)C4=O)ncc2F)C1 [Compound I-63, (R)-5-((4-((1-Acryloylpiperidin-3-yl)amino)-5-fluoropyrimidin-2-yl)amino)-2-methylisoindoline-1,3-dione]
